Assay [1] has as its target Cyclin-dependent kinase/G2/mitotic-specific cyclin- 1 (Homo sapiens, UniProt P06493). Briefly: CDK1/Cyclin B1 ADP-Glo Kinase Assay. On the procedure:
The luminescent signal generated is proportional to the ADP concentration produced and is correlated with the kinase activity. CDK1/Cyclin B1 was purchased from Carna (Cat 04-102). Typical reaction solutions (10 uL final reaction volume) contained 2% DMSO (f inhibitor), 10 mM MgCl2, 1 mM EGTA, 0.05% BSA, 2 mM DTT, 80 uM ATP (ATP Km=78.6 uM), 0.01% Brig-35, 0.75 uM substrate, and 4.917 nM CDK1/Cyclin Bl enzyme complex in 50 mM HEPES buffer at pH 7.5. The assay was initiated with the addition of ATP-containing substrate solution, following a 30-minute pre-incubation of enzyme and inhibitor at room temperature in the reaction mixture. The reaction was stopped after 90 minutes at room temperature by the addition of 10 uL of ADP-GLO Reagent. After a 90 minute incubation, 20 uL of Kinase Detection Reagent was added. Samples were incubated for 40 minutes, after which plate well luminescence was measured on a Envision microplate reader.

Assay [2] addresses Cyclin-dependent kinase 4/G1/S-specific cyclin-D1 (Homo sapiens, UniProt P11802). Briefly: CDK4/Cyclin D1 Mobility Shift Assay (MSA). On the procedure:
CDK4/Cyclin D1 catalyzes the production of ADP from ATP that accompanies the phosphoryl transfer to the substrate peptide 5-FAM-Dyrktide (5-FAM-RRRFRPASPLRGPPK) (Perkin Elmer Peptide 34). The mobility shift assay (MSA) electrophoretically separates the fluorescently labelled peptides (substrate and phosphorylated product) following the kinase reaction. Both substrate and product are measured, and the ratio of these values is used to generate % conversion of substrate to product by the LabChip EZ Reader. Typical reaction solutions contained 2% DMSO (+/−inhibitor), 10 mM MgCl2, 1 mM EGTA, 0.05% BSA, 2 mM DTT, 0.2 mM ATP, 0.01% Brig-35, 1.5 uM 5-FAM-Dyrktide, 2.5 nM CDK4/Cyclin D1 in 50 mM HEPES buffer at pH 7.5. The reaction was initiated with the addition of substrate solution, following a 30-minute pre-incubation of enzyme and inhibitor at 22° C. in the reaction mix. The reaction was stopped after 180 minutes by the addition of 75 uL of 500 mM EDTA and measured on a Perkin Elmer EZ reader instrument.

For assay [3], the target named is Cyclin-dependent kinase 2/G1/S-specific cyclin-E1 (Homo sapiens, UniProt P24941). Put plainly: CDK2/Cyclin E1 Full Length ADP-Glo Kinase Assay. On the procedure: ADP-Glo is performed in 2 steps upon completion of kinase reaction: a combined termination of kinase reaction and depletion of remaining ATP in the first step, and conversion of generated ADP to ATP and the newly produced ATP to light output using luciferase/luciferin reaction in the second step. The luminescent signal generated is proportional to the ADP concentration produced and is correlated with the kinase activity. CDK2/Cyclin E1 was purchased from Eurofins (Cat 14-475M). Typical reaction solutions (10 uL final reaction volume) contained 2% DMSO (f inhibitor), 10 mM MgCI2, 1 mM EGTA, 0.05% BSA, 2 mM DTT, 20 uM ATP (ATP Km=64.78 uM), 0.01% Brig-35, 0.75 uM substrate, and 0.328 nM wild-type full length CDK2/Cyclin E1 enzyme complex in 50 mM HEPES buffer at pH 7.5. The assay was initiated with the addition of ATP-containing substrate solution, following a 30-minute pre-incubation of enzyme and inhibitor at room temperature in the reaction mixture. The reaction was stopped after 90 minutes at room temperature by the addition of 10 uL of ADP-GLO Reagent. After a 90 minute incubation, 20 uL of Kinase Detection Reagent was added. Samples were incubated for 40 minutes, after which plate well luminescence was measured on a Envision microplate reader.

SMILES strings stand for the structures.

These results are taken from BindingDB's records for patent US20240092761 (Iambic Therapeutics, 2024).

By IC50 is commonly meant the concentration that inhibits the measured activity by half.

Sequence of Cyclin-dependent kinase 4/G1/S-specific cyclin-D1 (P11802 whole entry): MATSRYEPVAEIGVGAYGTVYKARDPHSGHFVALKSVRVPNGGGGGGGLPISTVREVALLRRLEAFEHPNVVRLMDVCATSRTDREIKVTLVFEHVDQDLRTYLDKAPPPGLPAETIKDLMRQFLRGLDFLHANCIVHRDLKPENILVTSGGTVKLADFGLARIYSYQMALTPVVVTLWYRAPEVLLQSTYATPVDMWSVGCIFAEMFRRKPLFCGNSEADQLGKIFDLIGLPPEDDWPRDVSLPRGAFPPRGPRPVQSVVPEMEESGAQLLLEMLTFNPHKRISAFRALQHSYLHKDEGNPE
Sequence of Cyclin-dependent kinase 4/G1/S-specific cyclin-D1 (P24385 whole entry, further chain): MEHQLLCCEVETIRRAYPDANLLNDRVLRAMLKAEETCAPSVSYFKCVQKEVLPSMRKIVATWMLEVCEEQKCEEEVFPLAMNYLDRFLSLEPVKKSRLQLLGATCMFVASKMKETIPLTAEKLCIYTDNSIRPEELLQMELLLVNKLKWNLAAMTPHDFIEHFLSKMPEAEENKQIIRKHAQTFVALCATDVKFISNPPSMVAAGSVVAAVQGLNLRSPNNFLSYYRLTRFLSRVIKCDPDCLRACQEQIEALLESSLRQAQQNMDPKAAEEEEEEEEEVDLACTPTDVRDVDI
Sequence of Cyclin-dependent kinase/G2/mitotic-specific cyclin- 1 (P06493 whole entry): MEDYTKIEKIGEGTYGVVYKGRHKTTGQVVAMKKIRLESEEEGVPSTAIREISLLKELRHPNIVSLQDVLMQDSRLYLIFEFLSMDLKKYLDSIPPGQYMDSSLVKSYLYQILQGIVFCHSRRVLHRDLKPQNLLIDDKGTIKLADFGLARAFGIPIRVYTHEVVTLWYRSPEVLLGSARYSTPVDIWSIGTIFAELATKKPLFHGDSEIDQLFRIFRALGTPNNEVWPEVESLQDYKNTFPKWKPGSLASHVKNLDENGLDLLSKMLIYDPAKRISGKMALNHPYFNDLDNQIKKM
Sequence of Cyclin-dependent kinase/G2/mitotic-specific cyclin- 1 (P14635 whole entry, further chain): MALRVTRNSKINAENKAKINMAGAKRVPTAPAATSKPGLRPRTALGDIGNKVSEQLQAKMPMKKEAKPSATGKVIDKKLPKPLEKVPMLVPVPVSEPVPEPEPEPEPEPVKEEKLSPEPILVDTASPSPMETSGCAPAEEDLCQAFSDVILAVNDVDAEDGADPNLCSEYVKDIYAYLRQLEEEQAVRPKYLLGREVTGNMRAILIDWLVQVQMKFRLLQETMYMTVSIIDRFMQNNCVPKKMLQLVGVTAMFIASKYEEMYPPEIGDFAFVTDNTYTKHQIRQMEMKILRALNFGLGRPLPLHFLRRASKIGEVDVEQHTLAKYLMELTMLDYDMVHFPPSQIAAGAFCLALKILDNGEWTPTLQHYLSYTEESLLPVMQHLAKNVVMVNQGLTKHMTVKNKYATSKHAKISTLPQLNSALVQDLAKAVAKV

In the case of `CS(=O)(=O)N1CCC(Nc2ncc3cccc(N4CCC(N5CCC5)C4)c3n2)CC1` (stereo not drawn) [US20240092761, Compound 32], the half-maximal inhibitory concentration (IC50) in assay [1] was > 2000 nM; in assay [2], 200 to 500 nM; in assay [3] it was < 200 nM.
